Test results: patent US20200031785A1, “METHODS FOR TREATING CHRONIC PAIN AND OPIOID DEPENDENCE USING ADENYLYL CYCLASE INHIBITORS” (Purdue Research Foundation, priority 2017, published 2020)
Where two headings read alike, the source gives them in different places.

How the values were obtained:
hAC8 = target: T1, hAC8 (Homo sapiens, UniProt P40145); assay: Cyclic AMP accumulation in HEK cells stably expressing AC8, stimulated with A23187 (HTRF); type: cell-based; settings: for hAC8 % Inhib.: % inhibition at 30 μM (negative values indicate a potentiated response); for inhibition at 30 µM: HEK293
T1 construct: expressed in transfected cells
T1 sequence (P40145 whole entry): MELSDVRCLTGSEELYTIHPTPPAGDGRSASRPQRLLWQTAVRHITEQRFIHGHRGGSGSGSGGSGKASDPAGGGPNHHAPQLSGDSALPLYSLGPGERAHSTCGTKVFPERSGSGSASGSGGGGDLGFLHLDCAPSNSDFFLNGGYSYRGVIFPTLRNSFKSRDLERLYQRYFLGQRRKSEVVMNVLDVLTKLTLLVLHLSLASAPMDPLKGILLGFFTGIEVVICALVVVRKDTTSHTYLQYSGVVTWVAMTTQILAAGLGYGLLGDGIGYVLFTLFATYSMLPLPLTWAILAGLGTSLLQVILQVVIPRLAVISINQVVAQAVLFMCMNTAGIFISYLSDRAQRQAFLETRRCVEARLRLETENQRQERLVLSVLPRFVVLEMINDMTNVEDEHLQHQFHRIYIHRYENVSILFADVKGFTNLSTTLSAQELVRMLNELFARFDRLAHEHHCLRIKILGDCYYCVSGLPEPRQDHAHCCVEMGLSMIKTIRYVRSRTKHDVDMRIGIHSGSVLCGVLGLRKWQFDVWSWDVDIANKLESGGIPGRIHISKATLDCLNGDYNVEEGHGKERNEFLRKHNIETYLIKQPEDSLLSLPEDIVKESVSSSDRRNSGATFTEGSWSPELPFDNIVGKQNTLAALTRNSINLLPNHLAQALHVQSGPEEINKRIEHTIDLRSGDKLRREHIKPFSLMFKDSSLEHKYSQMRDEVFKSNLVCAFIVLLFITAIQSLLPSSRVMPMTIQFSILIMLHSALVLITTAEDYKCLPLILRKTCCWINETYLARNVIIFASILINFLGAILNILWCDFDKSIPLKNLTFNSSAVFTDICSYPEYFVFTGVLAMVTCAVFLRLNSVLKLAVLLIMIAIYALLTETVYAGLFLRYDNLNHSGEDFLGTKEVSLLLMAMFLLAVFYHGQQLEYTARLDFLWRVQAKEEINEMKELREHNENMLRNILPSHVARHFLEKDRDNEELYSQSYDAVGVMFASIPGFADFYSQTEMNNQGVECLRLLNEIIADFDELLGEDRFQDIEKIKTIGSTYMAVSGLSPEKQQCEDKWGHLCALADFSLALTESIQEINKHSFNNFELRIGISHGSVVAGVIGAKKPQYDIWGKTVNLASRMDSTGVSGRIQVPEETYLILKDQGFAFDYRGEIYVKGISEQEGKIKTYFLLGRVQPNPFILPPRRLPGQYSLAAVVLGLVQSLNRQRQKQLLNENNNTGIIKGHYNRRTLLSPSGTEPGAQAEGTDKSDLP
Method: (§1) Fresh powders of several robust inhibitors (>90% inhibition) were evaluated in multiple confirmation assays assessing the dose response relationship for inhibiting AC1 and AC8 activity. Confirmation assays used A23817 to selectively stimulate recombinant AC1 or AC8 in the HEK cell background (Cumbay and Watts (2001), J. Pharmacol Exp Ther 297:1201-1399). This approach takes advantage of one unique regulatory property of AC1 for the development of selective inhibitors. Both AC1 and AC8 are robustly activated by Ca^2+/CaM under a variety of conditions, whereas the effects of Ca^2+/CaM on AC3 are modest and conditional requiring activation by G proteins. Previous studies have identified unique Ca^2+/CaM binding domains as one possible site of interaction to achieve AC1 (vs. AC8) selectivity (Masada et al., 2012, Biochemistry 51:7917-7929).
(§2) The primary technology we employed to measure cAMP accumulation was a homogenous time-resolved fluorescence (HTRF) assay, the same technology utilized in the primary screen. […] This could be due to either 1) the chemical scaffolds are exquisitely selective toward the AC family of enzymes or 2) the library has not been screened against a sufficient number of targets. The answer is likely a combination of the two; nonetheless, the lack of biological data to date bodes well for these series and any potential off-target promiscuity.
(§3) Human embryonic kidney (HEK) cells stably expressing AC1, AC8, or AC1 with the MOR were cultured in Dulbecco's Modified Eagle Medium (Life Technologies, Grand Island, N.Y.) supplemented with 5% bovine calf serum (Hyclone, Logan, Utah), 5% fetal clone I (Hyclone), Antibiotic-Antimycotic (Life Technologies), and G418 (Invivogen, San Diego, Calif.) (HEK-AC1), or hygromycin B (Fisher Scientific, Pittsburgh, Pa.) (HEK-AC8), or G418 and puromycin (Sigma-Aldrich) (HEK-AC1/MOR). Chinese hamster ovary (CHO) cells expressing the MOR (CHO-MOR) in the PathHunter® β-Arrestin GPCR assay platform were purchased from DiscoveRx (Freemont, Calif.). Cells were grown in Ham's F12 media supplemented with 1 mM L-glutamine (Thermo Scientific, West Palm Beach, Fla.), 10% fetal bovine serum (Hyclone), 50 U/ml penicillin, 50 μg/ml streptomycin (Life Technologies), G418 and hygromycin B. Cells were grown and frozen as previously described (J. M. Conley, et al., J Vis Exp, e51218 (2014)).
(§4) Cyclic AMP accumulation was measured as previously described (Brust, et al., J. Pharmacol. Exp. Ther. 352, 480-493(2015)). Briefly, cryopreserved cells were thawed, resuspended in optiMEM (Life Technologies), and plated in white, flat bottom, low-volume, tissue culture-treated 384 well plates (PerkinElmer, Shelton, Conn.). Plates with cells were incubated in a 37° C. humidified incubator for 1 h. Inhibitors were added and plates were incubated at room temperature for 30 min followed by the addition of AC stimulants in the presence of 500 μM IBMX. Cells were incubated at room temperature for 1 h and cAMP accumulation was measured using Cisbio's cAMP kit (Cisbio Bioassays, Bedford, Mass.) according to the manufacturer's instructions.

AC1-HEK cells [1] = system: AC1-HEK cells
hAC1 = target: T2, hAC1 (Homo sapiens, UniProt Q08828); assay: Cyclic AMP accumulation in HEK cells stably expressing AC1, stimulated with A23187 (HTRF); type: cell-based; settings: for Selectivity AC1 vs AC8: AC8 IC50/AC1 IC50, in the absence of AC8 IC50, estimate based on IC50 ≥30 μM; for inhibition at 30 µM: HEK293
T2 construct: expressed in transfected cells
T2 sequence (Q08828 whole entry): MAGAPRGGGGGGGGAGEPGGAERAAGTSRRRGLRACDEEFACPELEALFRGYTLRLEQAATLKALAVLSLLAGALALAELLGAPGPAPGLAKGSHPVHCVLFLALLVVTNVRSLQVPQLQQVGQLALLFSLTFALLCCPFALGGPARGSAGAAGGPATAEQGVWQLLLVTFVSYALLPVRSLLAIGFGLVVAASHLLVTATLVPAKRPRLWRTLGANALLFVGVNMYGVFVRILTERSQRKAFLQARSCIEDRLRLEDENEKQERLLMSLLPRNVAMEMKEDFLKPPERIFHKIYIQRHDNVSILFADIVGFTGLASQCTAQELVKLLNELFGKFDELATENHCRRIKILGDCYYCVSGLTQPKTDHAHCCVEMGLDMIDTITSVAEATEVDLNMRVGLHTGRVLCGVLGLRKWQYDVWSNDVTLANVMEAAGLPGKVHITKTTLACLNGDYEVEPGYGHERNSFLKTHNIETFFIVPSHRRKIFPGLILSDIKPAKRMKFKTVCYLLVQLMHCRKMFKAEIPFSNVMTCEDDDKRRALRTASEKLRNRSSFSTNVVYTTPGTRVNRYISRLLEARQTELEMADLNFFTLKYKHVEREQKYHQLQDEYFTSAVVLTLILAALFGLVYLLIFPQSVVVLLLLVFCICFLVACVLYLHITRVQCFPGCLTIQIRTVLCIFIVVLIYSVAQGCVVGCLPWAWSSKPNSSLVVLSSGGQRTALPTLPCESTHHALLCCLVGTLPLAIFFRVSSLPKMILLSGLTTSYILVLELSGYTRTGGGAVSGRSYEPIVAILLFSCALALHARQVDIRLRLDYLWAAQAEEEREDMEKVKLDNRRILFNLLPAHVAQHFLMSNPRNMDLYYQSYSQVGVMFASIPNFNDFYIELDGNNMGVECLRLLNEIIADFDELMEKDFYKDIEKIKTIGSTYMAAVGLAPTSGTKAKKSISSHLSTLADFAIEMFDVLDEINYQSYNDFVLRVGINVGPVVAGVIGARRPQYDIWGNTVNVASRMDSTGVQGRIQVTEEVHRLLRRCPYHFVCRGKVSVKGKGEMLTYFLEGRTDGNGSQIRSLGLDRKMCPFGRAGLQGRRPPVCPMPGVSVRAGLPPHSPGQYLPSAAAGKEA
Method: The development and mechanistic characterization of AC1-selective small molecule inhibitors is believed to provide novel non-opioid weapons in the war on chronic pain. We identified our initial hits via screening 10,000 selected compounds from the Life Chemicals collection. The screen was carried out using HEK cells stably expressing AC1 (HEK-AC1) and cyclic AMP accumulation was stimulated using the Ca^2+ ionophore, A23187 to selectively activate AC1. Compounds with potential chemical liabilities and PAINs were removed from further evaluation (Baell and Holloway, J. Med. Chem. 2010, 53, 2719-2740).
as §1, §2, §3, §4

hAC5 [2] = target: T3, hAC5 (Homo sapiens, UniProt O95622); assay: Cyclic AMP accumulation in stable HEK-AC5 cells, stimulated with 300 nM forskolin; type: cell-based; settings: % inhibition at 30 μM, 300 nM forskolin-stimulated, negative = potentiated response, n = 2
T3 construct: expressed in transfected cells
T3 sequence (O95622 whole entry): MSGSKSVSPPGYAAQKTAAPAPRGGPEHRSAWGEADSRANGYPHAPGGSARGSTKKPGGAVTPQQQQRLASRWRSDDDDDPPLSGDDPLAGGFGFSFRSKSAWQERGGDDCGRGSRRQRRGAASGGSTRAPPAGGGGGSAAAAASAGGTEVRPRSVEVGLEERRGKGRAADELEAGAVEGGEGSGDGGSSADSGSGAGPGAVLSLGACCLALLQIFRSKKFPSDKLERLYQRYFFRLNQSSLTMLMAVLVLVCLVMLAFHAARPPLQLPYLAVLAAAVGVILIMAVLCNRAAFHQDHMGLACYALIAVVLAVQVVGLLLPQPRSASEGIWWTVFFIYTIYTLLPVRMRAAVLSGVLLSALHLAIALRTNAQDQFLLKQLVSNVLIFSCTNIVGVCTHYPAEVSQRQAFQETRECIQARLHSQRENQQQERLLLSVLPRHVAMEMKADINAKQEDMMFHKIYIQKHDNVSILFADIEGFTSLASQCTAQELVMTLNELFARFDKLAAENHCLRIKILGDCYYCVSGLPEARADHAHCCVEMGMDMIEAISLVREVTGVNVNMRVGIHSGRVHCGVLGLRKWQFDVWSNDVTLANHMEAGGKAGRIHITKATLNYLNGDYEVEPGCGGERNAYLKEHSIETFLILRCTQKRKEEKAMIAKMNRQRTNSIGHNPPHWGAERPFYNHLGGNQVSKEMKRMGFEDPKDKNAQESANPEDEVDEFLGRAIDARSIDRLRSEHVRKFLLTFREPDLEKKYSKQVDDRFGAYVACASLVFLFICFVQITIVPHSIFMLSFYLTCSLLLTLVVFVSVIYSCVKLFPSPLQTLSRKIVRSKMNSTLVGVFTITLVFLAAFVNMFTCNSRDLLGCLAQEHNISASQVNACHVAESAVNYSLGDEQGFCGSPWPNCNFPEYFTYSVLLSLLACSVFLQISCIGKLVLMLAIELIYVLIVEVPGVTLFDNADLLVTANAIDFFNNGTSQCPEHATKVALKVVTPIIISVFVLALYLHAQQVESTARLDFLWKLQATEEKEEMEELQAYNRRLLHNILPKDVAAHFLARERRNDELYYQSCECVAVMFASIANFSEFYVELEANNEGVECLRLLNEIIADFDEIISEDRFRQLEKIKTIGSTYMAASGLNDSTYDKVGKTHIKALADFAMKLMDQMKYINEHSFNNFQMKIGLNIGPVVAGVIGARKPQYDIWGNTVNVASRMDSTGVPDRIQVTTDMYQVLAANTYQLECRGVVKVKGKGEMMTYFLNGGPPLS
Method: as §4

hAC2 [3] = target: T4, hAC2 (Homo sapiens, UniProt Q08462); assay: Cyclic AMP accumulation in stable HEK-AC2 cells, stimulated with 100 nM PMA; type: cell-based; settings: for hAC2 % Inhib.: % inhibition at 30 μM, 100 nM PMA-stimulated, negative = potentiated response, n = 2
T4 construct: expressed in transfected cells
T4 sequence (Q08462 whole entry): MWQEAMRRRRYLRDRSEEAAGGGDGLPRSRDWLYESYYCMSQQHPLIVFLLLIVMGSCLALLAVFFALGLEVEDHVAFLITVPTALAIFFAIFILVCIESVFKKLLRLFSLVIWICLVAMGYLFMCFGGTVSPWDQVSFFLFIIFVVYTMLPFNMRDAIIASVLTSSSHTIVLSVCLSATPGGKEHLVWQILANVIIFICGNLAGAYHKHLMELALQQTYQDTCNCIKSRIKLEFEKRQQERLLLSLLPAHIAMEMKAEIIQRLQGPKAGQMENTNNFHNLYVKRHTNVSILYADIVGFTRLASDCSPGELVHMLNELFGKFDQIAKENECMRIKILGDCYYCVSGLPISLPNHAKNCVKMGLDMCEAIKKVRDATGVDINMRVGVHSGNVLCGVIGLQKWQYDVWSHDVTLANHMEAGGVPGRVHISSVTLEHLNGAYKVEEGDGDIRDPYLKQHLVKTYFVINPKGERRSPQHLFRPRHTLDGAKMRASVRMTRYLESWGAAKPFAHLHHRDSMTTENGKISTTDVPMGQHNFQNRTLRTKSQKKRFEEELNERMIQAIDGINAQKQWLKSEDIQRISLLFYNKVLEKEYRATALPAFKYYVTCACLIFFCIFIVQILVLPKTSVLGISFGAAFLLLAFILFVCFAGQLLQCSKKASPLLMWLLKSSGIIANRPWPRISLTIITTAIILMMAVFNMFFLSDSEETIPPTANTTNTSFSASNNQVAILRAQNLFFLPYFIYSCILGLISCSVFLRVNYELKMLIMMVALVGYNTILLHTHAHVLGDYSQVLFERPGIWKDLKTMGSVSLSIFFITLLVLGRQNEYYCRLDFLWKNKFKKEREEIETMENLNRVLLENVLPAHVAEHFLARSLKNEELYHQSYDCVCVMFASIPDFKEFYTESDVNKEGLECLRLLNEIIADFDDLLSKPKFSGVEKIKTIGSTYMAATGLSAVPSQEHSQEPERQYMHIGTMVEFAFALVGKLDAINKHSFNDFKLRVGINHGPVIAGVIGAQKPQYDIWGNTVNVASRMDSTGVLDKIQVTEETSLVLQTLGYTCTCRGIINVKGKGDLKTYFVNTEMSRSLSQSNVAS
Method: as §4

hAC2 [4] = target: T4, hAC2; settings: data from Brust et al. 2017; % inhibition at 30 μM, PMA-stimulated, negative = potentiated; cited from earlier work
hAC5 [5] = target: T3, hAC5; settings: data from Brust et al. 2017; % inhibition at 30 μM, forskolin-stimulated, negative = potentiated; cited from earlier work
AC1-HEK cells [6] = settings: data from Brust et al. 2017; cited from earlier work
chronic pain responses = settings: both mice and rats; cited from earlier work
[7] = stable HEK cell line, A23187-stimulated cAMP accumulation, n ≥ 3
[8] = stable HEK cell line, A23187-stimulated cAMP accumulation, n ≥ 3, read-out: hAC1 IC50
[9] = stable HEK cell line, A23187-stimulated cAMP accumulation, n ≥ 3, read-out: hAC8 IC50
[10] = HEK-AC8 cells, read-out: HEK-AC8 IC50
[11] = HEK-AC1 cells, read-out: HEK-AC1 IC50

hAC8 % Inhib. (hAC8) | hAC1 % Inhib. (hAC1; [7]) | IC50 (hAC1; [8]) | hAC5 % Inhib. (hAC5 [2]) | hAC2 % Inhib. (hAC2 [3]) | inhibition at 30 µM (hAC8; HEK-AC8 cells) | inhibition at 30 µM (hAC1; HEK-AC1 cells) | IC50 (hAC8; [10]) | IC50 (hAC1; [11]) | SMILES | Viability % Vehicle (AC1-HEK cells [1]) | other results
 |  |  |  |  | 13 ± 7% | 12 ± 4% |  |  | O=C(Nc1nnc(-c2ccc(F)cc2)o1)c1ccccc1F [AC10060, 2-fluoro-N-(5-(4-fluorophenyl)-1,3,4-oxadiazol-2-yl)benzamide] |  | inhibition at 10 µM (hAC2 [3]; HEK-AC2 cells, 10 μM, (−) = negative inhibition (potentiated response)): 3 ± 6%
 |  |  |  |  | 32 ± 12% | 88 ± 4% | 51 ± 7 µM | 8.2 ± 2 µM | CCc1ccc(C(=O)Nc2nnc(-c3ccc(F)cc3)o2)cc1 [AC10044, 4-ethyl-N-(5-(4-fluorophenyl)-1,3,4-oxadiazol-2-yl)benzamide] |  | 
 |  |  |  |  | 83 ± 7% | 96 ± 1% | 15 ± 2 µM | 9.6 ± 1 µM | Cc1cc(C(=O)Nc2nnc(C3CCCCC3)o2)cc(C(F)(F)F)c1 [AC10069, N-(5-cyclohexyl-1,3,4-oxadiazol-2-yl)-3-methyl-5-(trifluoromethyl)benzamide] |  | 
 |  |  |  |  | 10 ± 12% | 71 ± 5% |  | 13.5 ± 2 µM | O=C(Nc1nnc(C2CCCCC2)o1)c1ccc(Cl)cc1 [AC10055, 4-chloro-N-(5-cyclohexyl-1,3,4-oxadiazol-2-yl)benzamide] |  | 
 |  |  |  |  | 58 ± 1% | 99 ± 2% | 29 ± 1 µM | 5 ± 1 µM | O=C(Nc1nnc(-c2ccc(F)cc2)o1)c1cccc(C(F)(F)F)c1 [AC10028, N-(5-(4-fluorophenyl)-1,3,4-oxadiazol-2-yl)-3-(trifluoromethyl)benzamide] |  | 
 |  |  |  |  | 90 ± 10% | 97 ± 1% | 7.5 ± 1 µM | 2.8 ± 0.6 µM | O=C(Nc1nnc(-c2ccc(F)cc2)o1)c1ccc(-c2ccccc2)cc1 [AC10066, N-(5-(4-fluorophenyl)-1,3,4-oxadiazol-2-yl)-[1,1′-biphenyl]-4-carboxamide] |  | 
 |  |  |  |  | 35 ± 1% | 81 ± 7% | 69 ± 11 µM | 10.6 ± 3 µM | O=C(Nc1nnc(-c2ccc(F)cc2)o1)c1cccc(F)c1 [AC10046, 3-fluoro-N-(5-(4-fluorophenyl)-1,3,4-oxadiazol-2-yl)benzamide] |  | 
 |  |  |  |  | 8 ± 2% | 65 ± 8% |  | 29 ± 10 µM | O=C(Nc1nnc(-c2ccc(F)cc2)o1)c1ccccc1 [AC10004, N-(5-(4-fluorophenyl)-1,3,4-oxadiazol-2-yl)benzamide] |  | 
 |  |  |  |  | 18 ± 10% | 84 ± 5% | 115 ± 43 µM | 9.6 ± 3 µM | COc1cccc(C(=O)Nc2nnc(-c3ccc4c(c3)OCCO4)o2)c1 [AC10038, N-(5-(2,3-dihydrobenzo[b][1,4]dioxin-6-yl)-1,3,4-oxadiazol-2-yl)-3-methoxybenzamide] |  | 
 |  |  |  |  | 89 ± 2% | 99 ± 0.5% | 4.1 ± 0.4 µM | 1.4 ± 0.2 µM | Cc1cc(C(=O)Nc2nnc(-c3ccc(F)cc3)o2)cc(C(F)(F)F)c1 [AC10065, N-(5-(4-fluorophenyl)-1,3,4-oxadiazol-2-yl)-3-methyl-5-(trifluoromethyl)benzamide] |  | 
 |  |  |  |  | 14 ± 3% | 64 ± 1% |  | 17 ± 2 µM | O=C(Nc1nnc(-c2ccc(F)cc2)o1)c1ccc(F)cc1 [AC10052, 4-fluoro-N-(5-(4-fluorophenyl)-1,3,4-oxadiazol-2-yl)benzamide] |  | 
 |  |  |  |  | 3 ± 6% | 65 ± 4% |  | 24.5 ± 2 µM | O=C(Nc1nnc(C2CCCCC2)o1)c1ccccc1 [AC10003, N-(5-cyclohexyl-1,3,4-oxadiazol-2-yl)benzamide] |  | 

More lines, now with the values behind:

SMILES | hAC8 % Inhib. (hAC8) | hAC1 % Inhib. (hAC1; [7]) | IC50 (hAC1; [8]) | hAC5 % Inhib. (hAC5 [2]) | hAC2 % Inhib. (hAC2 [3]) | inhibition at 30 µM (hAC8; HEK-AC8 cells) | inhibition at 30 µM (hAC1; HEK-AC1 cells) | IC50 (hAC8; [10]) | IC50 (hAC1; [11]) | Viability % Vehicle (AC1-HEK cells [1]) | other results
CSc1cccc(C(=O)Nc2nnc(C3CCCCC3)o2)c1 [F2289-0107] | 31 ± 2% | 99 ± 1% | 7.5 ± 2 µM | -28% | −210% |  |  |  |  | 117 ± 1 % Vehicle | Selectivity AC1 vs AC8 (hAC1): >4-fold
O=c1cc(C(Cl)(Cl)Cl)oc2ccc(Cl)cc12 [ST034307, 6-chloro-2-(trichloromethyl)-4H-chromen-4-one] |  |  |  |  |  |  |  |  |  |  | hAC2 % Inhib. (hAC2 [4]): −142%; hAC5 % Inhib. (hAC5 [5]): −44%; Viability % Vehicle (AC1-HEK cells [6]): 85 ± 6 % Vehicle
Nc1ncnc2c1ncn2CCNCCCCCO [NB001] |  |  |  |  |  |  |  |  |  |  | effect on chronic pain responses (inflammatory and neuropathic) (chronic pain responses): markedly attenuated chronic pain responses
CSc1ccccc1C(=O)Nc1cc(C)nn1-c1nc2c(c(=O)[nH]1)CCC2 [F2215-0954] | 35 ± 8% | 99 ± 1% | 5.9 ± 0.4 µM | −21% | −185% |  |  |  |  | 106 ± 14 % Vehicle | Selectivity AC1 vs AC8 (hAC1): >5-fold
CCc1c(C)nc(-n2nc(C)cc2NC(=O)c2ccco2)[nH]c1=O [F2215-0772] | 34 ± 7% | 100 ± 1% | 0.9 ± 0.2 µM | 13% | 32% |  |  |  |  | 93 ± 1 % Vehicle | Selectivity AC1 vs AC8 (hAC1): >30-fold
CCc1cc(=O)[nH]c(-n2nc(C)cc2NC(=O)c2ccccc2F)n1 [F2215-0213] | 20 ± 1% | 99 ± 1% | 0.5 ± 0.1 µM | 9% | −70% |  |  |  |  | 101 ± 17 % Vehicle | 
CC1CC(C)CN(S(=O)(=O)c2ccc(C(=O)Nc3nnc(-c4cccs4)o3)cc2)C1 (centres unmarked) [F0559-0346] | 74 ± 13% | 99 ± 1% | 9.1 ± 2 µM | 4% | −6% |  |  |  |  | 118 ± 2 % Vehicle | IC50 (hAC8; [9]): 17 ± 6 µM; Selectivity AC1 vs AC8 (hAC1): 2-fold
O=C(Nc1nnc(-c2ccc3c(c2)OCCO3)o1)c1ccc(Br)cc1 [F0608-0011] | 79 ± 1% | 101 ± 1% | 2 ± 0.2 µM | −10% | -7% |  |  |  |  | 125 ± 3 % Vehicle | IC50 (hAC8; [9]): 18 ± 2 µM; Selectivity AC1 vs AC8 (hAC1): 9-fold
O=C(Nc1nnc(-c2ccc3c(c2)CCCC3)o1)c1ccccc1 [F0608-0538] | 76 ± 8% | 101 ± 1% | 2.1 ± 0.4 µM | −34% | -95% |  |  |  |  | 118 ± 6 % Vehicle | IC50 (hAC8; [9]): 21 ± 4 µM; Selectivity AC1 vs AC8 (hAC1): 10-fold
